# Source: paper PMC9150179, “Clerodane Diterpenes from Casearia corymbosa as Allosteric GABAA Receptor Modulators” (Journal of Natural Products, 2022)
# How the values were obtained:
# [1] = target: GABAA receptor with the α1β2γ2 subunit composition (Homo sapiens, UniProt P14867+P18507+P47870); assay: FLIPR assay on CHO cells stably expressing GABAA receptors; assay type: cell-based; settings: for % activation at single concentration: 20 μM compound, 200 μM GABA = 100%
# Experimental: Chinese hamster ovary (CHO) cells stably expressing the GABAA receptor with the α1β2γ2 subunit composition were passaged following an established protocol.[15],[16] The Chinese hamster ovary (CHO) cell line stably expressing the α1β2γ2 GABAA receptor subtype was cloned by B’SYS. Cells were cultured in a DMEM F-12 nutrient mixture supplemented with 10% FBS and 1% penicillin/streptomycin, under antibiotic pressure with 200 μg/mL of hygromycin B, 5 μg/mL of puromycin, and 100 μg/mL of zeocin. Cells were incubated in humidified air at 37 °C and 5% CO2, until 80–90% cell confluency. The passage numbers used in this study were from 10 to 30. Briefly, cells of ca. 80–90% confluency were seeded in a 96-well black-walled plate at a density of 60 000 cells/well in 100 μL of culture medium. The plate was incubated in humidified air at 37 °C and 5% CO2 for 24 h to allow cells to adhere. Then, 100 μL of FLIPR red dye solution (10.4 mL of assay buffer and one vial of red FLIPR assay reagent) was added to each well. The plate was further incubated for 30 min to allow the dye to penetrate into the cell membrane (assay plate). During the incubation time, a compound plate (clear 96-well plate) with controls, extracts, microfractions, compounds, and blanks was prepared (200 μL/well). Test solutions of extracts, microfractions, and compounds were prepared in buffer (consisting of 10% HBSS and 2% HEPES in sterilized H2O) and DMSO.
# For the extract library screening, 2 μL of a 10 mg/mL DMSO stock solution of the extracts was added to 198 μL of buffer and transferred into the compound plate. The final test concentration for extracts was 20 μg/mL, with a final DMSO concentration in the assay of 0.1%. For extracts tested, active (>35% potentiation) serial dilutions were prepared from the stock solution to obtain final test concentrations of 0.16, 0.31, 0.63, 1.25, 2.50, 5.00, 10.00, and 20.00 μg/mL.
# To test the pure compounds, stock solutions of 20 mM in DMSO were prepared. Compounds were assayed at a final concentration range of 0.16 to 20.00 μM (8× dilution series) or alternatively from 0.01 to 20.00 μM (12× dilution series). Aliquots of 200 μL from each dilution were transferred into wells of the compound plate and tested.
# A series of controls was included in each assay. GABA at 200 μM was used to represent 100% activation of the receptor, while GABA at 2 μM represented the minimum activation (EC10). The positive control was diazepam at 20 μM in the presence of GABA at 2 μM, and buffer with 0.1% DMSO was used as a blank. GABA solutions (2 and 200 μM) were prepared from a 100 mM stock solution. In order to achieve a final test concentration of 20 μM diazepam in the assay plate, a 100 μM working solution was prepared from a stock solution (1 mg/mL in MeOH).
# All test solutions were placed in the appropriate position in the compound plate (200 μL). Right after the final incubation period of the assay plate, the compound and assay plates were placed into a FlexStation 3 (Molecular Devices). The FlexStation parameters used in this study were as previously published.[14] Fluorescence was recorded for 500 s. For the first 25 s, the background fluorescence of the assay plate was measured (background signal). At 25 s, 50 μL of the test solutions (dilutions from compounds, extracts, microfractions, diazepam, and blanks) was transferred from the compound plate into the assay plate. The fluorescence was then recorded until 295 s. At 295 s, 25 μL of the GABA solutions (final concentration of 2 or 200 μM) was transferred into each well of the assay plate, and fluorescence was recorded until 500 s. The change in fluorescence intensity measured between 270 and 330 s was used for the calculation of percentage activation.
# [2] = target: T1, GABAA receptors α1β2 (Homo sapiens, UniProt P14867+P47870); assay: Two-microelectrode voltage clamp assay with Xenopus laevis oocytes (α1β2); assay type: cell-based; settings: α1β2, in the presence of GABA EC3–7, n = 3
# T1 construct: expressed in transfected cells; host or cells: Xenopus laevis oocytes, cRNA injection
# T1 sequence (P14867 28-456): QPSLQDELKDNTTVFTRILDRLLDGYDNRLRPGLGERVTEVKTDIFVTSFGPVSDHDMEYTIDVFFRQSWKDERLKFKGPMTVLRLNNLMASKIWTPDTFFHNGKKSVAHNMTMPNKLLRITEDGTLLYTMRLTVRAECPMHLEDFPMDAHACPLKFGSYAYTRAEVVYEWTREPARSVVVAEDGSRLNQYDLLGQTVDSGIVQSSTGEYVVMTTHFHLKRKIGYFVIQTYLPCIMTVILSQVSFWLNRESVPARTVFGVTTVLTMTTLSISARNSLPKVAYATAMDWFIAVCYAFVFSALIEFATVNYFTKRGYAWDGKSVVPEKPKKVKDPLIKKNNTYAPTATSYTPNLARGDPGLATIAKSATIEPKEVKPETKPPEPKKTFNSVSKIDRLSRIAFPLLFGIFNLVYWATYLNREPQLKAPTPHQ
# T1 sequence (P47870 25-512 limits assumed): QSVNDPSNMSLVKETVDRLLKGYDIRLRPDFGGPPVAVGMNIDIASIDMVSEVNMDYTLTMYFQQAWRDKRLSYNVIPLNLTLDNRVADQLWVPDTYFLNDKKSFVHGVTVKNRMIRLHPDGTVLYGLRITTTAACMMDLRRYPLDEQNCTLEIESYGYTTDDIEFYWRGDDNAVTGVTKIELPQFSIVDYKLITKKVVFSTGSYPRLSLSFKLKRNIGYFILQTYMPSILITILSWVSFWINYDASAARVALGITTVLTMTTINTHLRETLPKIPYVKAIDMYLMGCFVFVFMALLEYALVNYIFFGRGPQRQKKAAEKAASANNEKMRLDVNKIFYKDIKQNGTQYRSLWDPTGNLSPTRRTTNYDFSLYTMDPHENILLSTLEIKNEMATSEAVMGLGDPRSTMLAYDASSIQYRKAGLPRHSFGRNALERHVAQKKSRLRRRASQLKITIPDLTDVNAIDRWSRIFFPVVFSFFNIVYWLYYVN
# Experimental: Recombinant GABAA receptors (α1β2γ2s and α1β2) were expressed in X. laevis oocytes by cRNA injection, as previously described.[37] Two-microelectrode voltage clamp measurements were performed between days 1 and 5 after injection of cRNA of the respective subunits, using a TURBO TEC 03X amplifier (npi Electronic) at a holding potential of −70 mV and pCLAMP 10 data acquisition software (Molecular Devices). The bath solution contained 90 mM NaCl, 1 mM KCl, 1 mM MgCl2, 1 mM CaCl2, and 5 mM HEPES (pH 7.4), and the electrode filling solution contained 2 M KCl. Test solutions (100 μL) were applied to the oocytes at a speed of 300 μL/sec by means of the ScreeningTool (npi electronic) automated fast perfusion system. GABA EC3–7 was determined through a concentration–response experiment with GABA. A stock solution of compound 8 (100 mM) in DMSO was diluted with a bath solution containing GABA EC3–7 to obtain appropriate working solutions according to a validated protocol. Enhancement of the IGABA was defined as (I(GABA+Comp)/IGABA) – 1, where I(GABA+Comp) is the current response in the presence of a given compound, and IGABA is the control of the GABA-induced chloride current. Emax reflects the maximal IGABA enhancement. […]
# [3] = target: T2, GABAA receptors α1β2γ2S (Homo sapiens, UniProt P14867+P18507+P47870); assay: Two-microelectrode voltage clamp assay with Xenopus laevis oocytes (α1β2γ2S); assay type: cell-based
# T2 construct: expressed in transfected cells; host or cells: Xenopus laevis oocytes, cRNA injection
# Experimental: Recombinant GABAA receptors (α1β2γ2s and α1β2) were expressed in X. laevis oocytes by cRNA injection, as previously described.[37] Two-microelectrode voltage clamp measurements were performed between days 1 and 5 after injection of cRNA of the respective subunits, using a TURBO TEC 03X amplifier (npi Electronic) at a holding potential of −70 mV and pCLAMP 10 data acquisition software (Molecular Devices). The bath solution contained 90 mM NaCl, 1 mM KCl, 1 mM MgCl2, 1 mM CaCl2, and 5 mM HEPES (pH 7.4), and the electrode filling solution contained 2 M KCl. Test solutions (100 μL) were applied to the oocytes at a speed of 300 μL/sec by means of the ScreeningTool (npi electronic) automated fast perfusion system. GABA EC3–7 was determined through a concentration–response experiment with GABA. A stock solution of compound 8 (100 mM) in DMSO was diluted with a bath solution containing GABA EC3–7 to obtain appropriate working solutions according to a validated protocol. Enhancement of the IGABA was defined as (I(GABA+Comp)/IGABA) – 1, where I(GABA+Comp) is the current response in the presence of a given compound, and IGABA is the control of the GABA-induced chloride current. Emax reflects the maximal IGABA enhancement. Concentration–response curves were generated, and the data were fitted by nonlinear regression analysis using Origin Software (OriginLab Corporation, USA) and are given as the means ± SEM of at least three oocytes from ≥2 batches. Diazepam (Sigma) and flumazenil (Sigma-Aldrich) were used as positive controls at 2 μM.
# [4] = test system: GABAA receptors; set-up: method as in PMID 17585957; settings: Xenopus oocyte assay; cited from earlier work
# GABAA receptor with the α1β2γ2 subunit composition, sequence (P18507 40-475, one chain of several): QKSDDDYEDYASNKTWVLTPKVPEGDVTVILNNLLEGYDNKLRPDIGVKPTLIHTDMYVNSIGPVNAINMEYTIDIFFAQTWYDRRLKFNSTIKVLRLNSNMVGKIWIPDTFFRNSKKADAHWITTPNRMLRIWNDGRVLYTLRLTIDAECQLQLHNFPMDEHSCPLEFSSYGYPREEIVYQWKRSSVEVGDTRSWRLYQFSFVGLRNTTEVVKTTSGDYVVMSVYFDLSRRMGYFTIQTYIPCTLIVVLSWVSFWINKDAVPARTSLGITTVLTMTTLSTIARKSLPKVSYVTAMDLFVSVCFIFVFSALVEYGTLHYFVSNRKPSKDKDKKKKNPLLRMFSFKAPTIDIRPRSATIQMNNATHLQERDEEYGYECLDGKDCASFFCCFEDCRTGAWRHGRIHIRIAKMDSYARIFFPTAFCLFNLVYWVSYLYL
# T2 sequence (P18507 40-467 isoform P18507-1 limits assumed, one chain of several): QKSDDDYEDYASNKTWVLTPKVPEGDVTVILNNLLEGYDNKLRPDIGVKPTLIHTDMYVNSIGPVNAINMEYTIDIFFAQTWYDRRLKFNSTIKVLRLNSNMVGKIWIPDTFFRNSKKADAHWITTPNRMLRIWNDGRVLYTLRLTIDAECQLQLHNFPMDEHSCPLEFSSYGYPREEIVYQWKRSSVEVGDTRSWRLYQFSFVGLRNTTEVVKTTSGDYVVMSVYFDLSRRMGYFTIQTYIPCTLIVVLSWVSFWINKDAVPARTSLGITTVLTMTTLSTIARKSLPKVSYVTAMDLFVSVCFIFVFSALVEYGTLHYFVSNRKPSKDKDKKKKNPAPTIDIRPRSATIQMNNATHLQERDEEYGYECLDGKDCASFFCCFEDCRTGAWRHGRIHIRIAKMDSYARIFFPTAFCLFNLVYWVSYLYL
molecule,measurement,setting,value
"C=C/C(C)=C/C[C@]1(C)[C@H](C)C[C@H](O)[C@@]2(C=O)C(C=O)=C[C@@H](OC(C)=O)C[C@@H]12 [Compound 1, (5S,8R,9R,10S)-2S-Acetoxy-6S-hydroxyclerod-3,12,14-trien-18,19-dial]",% activation at single concentration,[1]; in the presence of 2 μM GABA,~40%
"C=C/C(C)=C/C[C@]1(C)[C@H](C)C[C@H](O)[C@]23C(=C[C@@H](OC(C)=O)C[C@@H]12)[C@@H](OC)O[C@H]3OC(C)=O [Compound 2, Graveospene H]",% activation at single concentration,[1]; in the presence of 2 μM GABA,no discernible activity
"C=C/C(C)=C/C[C@]1(C)[C@H](C)C[C@H](O)[C@]23C(=C[C@@H](OC(C)=O)C[C@@H]12)[C@@H](OC(C)=O)O[C@H]3OC(C)=O [Compound 3, Corymbotin D]",% activation at single concentration,[1]; in the presence of 2 μM GABA,significantly enhanced
"C=C/C(C)=C/C[C@]1(C)[C@H](C)C[C@H](O)[C@]23C(=C[C@H](OC(=O)C(=C)C)C[C@@H]12)[C@@H](OC(C)=O)O[C@H]3OC(C)=O [Compound 4, Corymbotin F]",% activation at single concentration,[1]; in the presence of 2 μM GABA,no discernible activity
"C=C/C(C)=C/C[C@]1(C)[C@H](C)C[C@H](OC)[C@@]2(C=O)C(C=O)=C[C@@H](OC(C)=O)C[C@@H]12 [Compound 5, (5S,8R,9R,10S)-2S-Acetoxy-6S-methoxyclerod-3,12,14-trien-18,19-dial]",% activation at single concentration,[1]; in the presence of 2 μM GABA,~40%
"C=C/C(C)=C/C[C@]1(C)[C@H](C)C[C@H](O)[C@]23C(=C[C@H](OC(=O)C(=C)C)C[C@@H]12)[C@@H](OC)O[C@H]3OC(C)=O [Compound 6, (2R)-2-Methylpropenoyloxy-6S-hydroxy-18S-methoxy-19S-acetoxyzuelanin]",% activation at single concentration,[1]; in the presence of 2 μM GABA,no discernible activity
"C=C/C(C)=C/CC1(C)C(C)CC(OC(C)=O)C23C(=CC(OC(C)=O)CC12)C(OC(C)=O)OC3OC(C)=O [Compound 7, (2S,6S,18S,19S)-Tetraacetoxyzuelanin]",% activation at single concentration,[1]; in the presence of 2 μM GABA,significantly enhanced
same,EC50,"[1]; in the presence of 2 μM GABA, CHO cells α1β2γ2, read-out: EC50, positive allosteric modulation of the GABA signal",4.6 µM
"C=C/C(C)=C/C[C@]1(C)[C@H](C)C[C@H](OC)[C@]23C(=C[C@@H](OC(C)=O)C[C@@H]12)[C@@H](OC(C)=O)O[C@H]3OC(C)=O [Compound 8, Corimbotin A]",% activation at single concentration,[1]; in the presence of 2 μM GABA,significantly enhanced
same,activation by 8 in the presence of flumazenil,"[1]; 8 (5 μM) with flumazenil 0.001–10 μM, 2 μM GABA",not abrogated
same,combination with allopregnanolone,"[1]; 8 (0.5–4.0 μM) with allopregnanolone (0.25 μM), 2 μM GABA",additive effects
same,combination with diazepam,"[1]; 8 (0.5–8 μM) with diazepam (2 μM), 2 μM GABA",additive effect
same,potentiation of the GABA signal by etazolate in combination with 8,"[1]; etazolate (2 μM) with 8 (0.5–8 μM), 2 μM GABA",further increased
same,EC50,"[2]; read-out: EC50, potentiation of GABA-induced chloride currents (IGABA)",57.6 µM
same,Emax,"[2]; read-out: Emax, maximal IGABA enhancement",534%
same,IGABA stimulation by 8 in the presence of flumazenil,"[3]; 8 (50 μM), flumazenil (2 μM)",not prevented
same,EC50,"[3]; α1β2γ2S, in the presence of GABA EC3–7, n = 3, read-out: EC50, potentiation of GABA-induced chloride currents (IGABA)",43.6 µM
same,Emax,"[3]; α1β2γ2S, in the presence of GABA EC3–7, n = 3, read-out: Emax, maximal IGABA enhancement",809%
"C=C/C(C)=C/C[C@]1(C)[C@H](C)C[C@H](OC)[C@]23C(=C[C@H](OC(=O)CC)C[C@@H]12)[C@@H](OC(C)=O)O[C@H]3OC(C)=O [Compound 9, (2R)-Propanoyloxy-(6R)-methoxy-18R,19S-diacetoxyzuelanin]",% activation at single concentration,[1]; in the presence of 2 μM GABA,no discernible activity
CN1C(=O)CN=C(c2ccccc2)c2cc(Cl)ccc21 [diazepam],maximal potentiation (Emax),[4],~200%
"CCO [ethanol, reference compound]",activation of the GABA signal,"[1]; concentrations up to 640 mM, in presence of 2 μM GABA",no activation
"CCOC(=O)c1ncn2c1CN(C)C(=O)c1cc(F)ccc1-2 [flumazenil, reference compound]",effect on potentiation of the GABA signal by diazepam,"[1]; diazepam 2 μM, flumazenil 0.001–100 μM, concentration-dependent",abolished
"pregnenolone sulfate [PREGS, reference compound]","effect of PREGS on GABA signal with 8, highest concentration","[1]; 8 (10 μM) with PREGS 10 μM, 2 μM GABA",decrease of the GABA signal
same,"effect of PREGS on GABA signal with 8, lower concentrations","[1]; 8 (10 μM) with PREGS at lower concentrations (<10 μM), 2 μM GABA",no effect
same,effect on activation by allopregnanolone,"[1]; allopregnanolone 0.5 μM, PREGS 0.001–100 μM",abrogated
